Assay: xn = mol fraction of the nth substance listed
Conditions: 100 kPa

CC[N+](CC)(CC)CC.O=S(=O)([O-])C(F)(F)F + CC#N
electrical conductivity [S/m]
Conditions | x1 = 0.02 | x1 = 0.05 | x1 = 0.08 | x1 = 0.0997 | x1 = 0.1199 | x1 = 0.1498 | x1 = 0.2 | x1 = 0.25 | x1 = 0.2995
293.15 K | – | – | 4.63 | 4.72 | 4.54 | 4.22 | 3.51 | 2.89 | 2.58
298.15 K | 2.66 | 4.19 | 4.71 | – | 4.7 | 4.38 | 3.62 | 3.14 | 2.82
303.15 K | 2.77 | 4.39 | 4.84 | 5 | 4.96 | 4.48 | 3.78 | 3.39 | 3.08
308.15 K | 2.87 | 4.57 | 5.08 | 5.24 | 5.22 | – | 4.06 | 3.65 | 3.35
313.15 K | 2.97 | 4.76 | 5.31 | 5.49 | 5.48 | 5.04 | 4.34 | 3.91 | 3.62
318.15 K | 3.08 | – | 5.54 | 5.73 | 5.74 | 5.32 | 4.61 | 4.17 | –
323.15 K | 3.18 | 5.11 | 5.77 | 5.98 | 5.99 | 5.6 | 4.89 | 4.44 | –
328.15 K | 3.28 | 5.29 | 6 | 6.22 | 6.25 | 5.88 | 5.17 | 4.7 | 4.44
333.15 K | 3.38 | 5.46 | 6.23 | 6.45 | 6.5 | 6.15 | – | – | –
338.15 K | 3.47 | 5.64 | 6.45 | 6.69 | 6.76 | 6.42 | 5.72 | 5.22 | 5.01
343.15 K | 3.58 | 5.81 | 6.67 | 6.92 | 7.02 | 6.7 | 6 | 5.5 | 5.28
348.15 K | – | 5.97 | – | 7.16 | 7.27 | – | 6.26 | 5.77 | 5.55
